Read-outs that look alike come from different tables or passages of the source.
Legend:
[1] = system: TNF-α in RAW264.7 macrophages stimulated by lipopolysaccharide; experiment: TNF-α ELISA in cell supernatant of LPS-stimulated RAW264.7 macrophages; assay type: cell-based, mice
Experimental: RAW264.7 cells were inoculated into a 96-well plate at a density of 1×10^5 per well. When the cell density was 70%-80%, 18 balasubramide derivatives were prepared into 10 mM working solutions with DMSO, respectively, and then used to pretreat mononuclear macrophages RAW264.7 of mice at a final concentration of 10 μM. After 3 h, lipopolysaccharide (LPS, 100 ng/mL) was added into all wells for action for 2 h except for a control group. A supernatant was collected for later use, and the expression level of an inflammatory factor TNF-α in the cell supernatant was detected according to an operation instruction of a commercial ELISA kit.
RAW264.7 cells were inoculated into a 96-well plate at a density of 1×10^5 per well. When the cell density was 70%-80%, the RAW264.7 cells were pretreated with (+)3C-20 ([…]). After 3 h, lipopolysaccharide (LPS, 100 ng/mL) was added into all wells for action for 2 h except for a control group. The expression level of an inflammatory factor TNF-α in a cell supernatant was detected according to an operation instruction of a commercial ELISA kit, and the cell viability at different administration concentrations of (+)3C-20 was determined according to an operation instruction of a CCK-8 kit.

[2] = system: mice with acute lung injury caused by intratracheal instillation of lipopolysaccharide; experiment: Survival rate of mice with acute lung injury caused by intratracheal instillation of LPS; assay type: in vivo, ICR mice; conditions: 50 mg/kg, LPS 20 mg/kg it, checked up to 72 h
Experimental: Grouping and administration of animals: 45 male ICR mice were randomly divided into 5 groups according to the body weight, including a control group, a model group, a positive dexamethasone (5 mg/kg) group, a (+)3C-20 (10 mg/kg) group and a (+)3C-20 (50 mg/kg) group, with 9 mice in each group. Drug preparation, an administration method and a modeling method were the same as those in Example 7. With the time of intratracheal instillation of LPS as 0 h, the survival state of the mice was checked at the time points of 4 h, 12 h, 16 h, 20 h, 24 h, 36 h, 48 h, 60 h and 72 h, and a survival curve was drawn based on statistics. Results are shown in FIG. 13 (where compared with LPS (20 mg/kg), ***P is less than 0.001).

[3] = system: TNF-α in bone marrow derived macrophages (BMDMs) stimulated by lipopolysaccharide; experiment: TNF-α ELISA in LPS-stimulated bone marrow derived macrophages; assay type: cell-based, C57BL/6J mice; conditions: for Percentage of TNF-α in a model group (%): LPS 100 ng/mL 3 h
Experimental: (§1) (1) Collection of bone marrow derived macrophages (BMDMs): C57BL/6J mice were sacrificed by dislocation of cervical vertebra, completely soaked and sterilized with 75% ethanol and placed faceup on a mouse board to fix the four limbs, the skin of the hind limbs was cut, the limbs were cut at ankle joints and femoral joints, and muscles and knee joints were removed. Precooled serum-free DMEM was sucked with a 1 mL syringe to rinse the bone marrow until a leg bone turned white, a rinsing solution was filtered with a 200-mesh filter membrane and then collected into a 15 mL centrifuge tube, centrifugation was performed at 500×g for 5 min, a supernatant was discarded, and a cell precipitate was resuspended with 1 mL of a red blood cell lysis buffer. After stomatocytosis was performed for 1 min, 5 mL of DMEM was added to stop the stomatocytosis, centrifugation was performed at 500×g for 5 min, a supernatant was discarded, and cells at a lower layer were resuspended overnight with DMEM containing 10% of FBS. Monocytes were collected by centrifugation and then resuspended with a DMEM culture medium containing 20% of FBS, and M-CSF was added at a final concentration of 25 ng/mL. The cells were inoculated into a 96-well plate at a density of 6×10^5, cultured in a cell incubator with a CO2 concentration of 5% at 37° C. for 48 h, and then cultured by adding M-CSF with a final concentration of 25 ng/mL into each well for 48 h until the monocytes were subjected to adherent culture and differentiation to obtain macrophages.
(§2) The expression level of an inflammatory factor TNF-α in a cell supernatant was detected according to an operation instruction of a commercial ELISA kit, and the cell viability at different administration concentrations of (+)3C-20 was determined according to an operation instruction of a CCK-8 kit.

[4] = system: bone marrow derived macrophages (BMDMs); experiment: CCK-8 cell viability of bone marrow derived macrophages; assay type: cell-based, C57BL/6J mice; conditions: BMDM cell viability
Experimental: as §1, §2

O=C(CCc1ccc(C(F)(F)F)cc1)O[C@@H]1C(=O)NCCc2c([nH]c3ccccc23)[C@H]1c1ccc(C(F)(F)F)cc1 [(+)-3C-20]
anti-inflammatory activity (inhibition of expression of TNF-α in macrophages), in words ([1]; 10 μM, RAW264.7, LPS): better anti-inflammatory activity than other derivatives
activity at 0.1 µM ([1]; Mus musculus, RAW264.7, 0.1 μM, RAW264.7, LPS 100 ng/mL, read-out: Percentage of TNF-α in a model group (%)): 99.83 ± 0.89%
activity at 0.5 µM ([1]; Mus musculus, RAW264.7, 0.5 μM, RAW264.7, LPS 100 ng/mL, read-out: Percentage of TNF-α in a model group (%)): 98.1 ± 1.56%
activity at 1 µM ([1]; Mus musculus, RAW264.7, 1 μM, RAW264.7, LPS 100 ng/mL, read-out: Percentage of TNF-α in a model group (%)): 94.38 ± 0.45%
activity at 2 µM ([1]; Mus musculus, RAW264.7, 2 μM, RAW264.7, LPS 100 ng/mL, read-out: Percentage of TNF-α in a model group (%)): 88.6%
activity at 5 µM ([1]; Mus musculus, RAW264.7, 5 μM, RAW264.7, LPS 100 ng/mL, read-out: Percentage of TNF-α in a model group (%)): 83.7%
activity at 10 µM ([1]; Mus musculus, RAW264.7, 10 μM, RAW264.7, LPS 100 ng/mL (Table 3), read-out: Percentage of TNF-α in a model group (%)): 51.2%
activity at 20 µM ([1]; Mus musculus, RAW264.7, 20 μM, RAW264.7, LPS 100 ng/mL, read-out: Percentage of TNF-α in a model group (%)): 39.4%
activity at 10 µM ([1]; Mus musculus, RAW264.7, 2 h, 10 μM, 3 h pretreatment, LPS 100 ng/mL 2 h, RAW264.7, read-out: Percentage of TNF-α in a model group (%)): 39.9 ± 2.88%
effective dose for inhibiting the expression of TNF-α in the macrophages ([1]; RAW264.7, LPS): 2 to 20 µM
survival rate of the model mice, in words [2]: can obviously improve the survival rate
Percentage of TNF-α in a model group (%) ([3]; 0.1 μM): 88.17 ± 7.91%
Percentage of TNF-α in a model group (%) ([3]; 1 μM): 86.35 ± 7.41%
Percentage of TNF-α in a model group (%) ([3]; 2.5 μM): 62.94 ± 8.54 %
Percentage of TNF-α in a model group (%) ([3]; 5 μM): 35.12 ± 4.63 %
effective dose for inhibiting the expression of TNF-α for the BMDMs ([3]; LPS): 2.5 μM or 5 μM
Percentage of CCK-8 in a model group (%) ([4]; 0.1 μM): 100.35 ± 3.74%
Percentage of CCK-8 in a model group (%) ([4]; 1 μM): 96.71 ± 2.26%
Percentage of CCK-8 in a model group (%) ([4]; 2.5 μM): 97.49 ± 1.35%
Percentage of CCK-8 in a model group (%) ([4]; 5 μM): 89.87 ± 3.68%

Reference: patent US20240300959A1, “BALASUBRAMIDE DERIVATIVE AND USE THEREOF IN PREPARATION OF MEDICINE FOR TREATING ACUTE LUNG INJURY” (Guangdong Pharmaceutical University, priority 2023, published 2024)
